# Data published in PMC8998350, “The Evidence for Effective Inhibition of INa Produced by Mirogabalin ((1R,5S,6S)-6-(aminomethyl)-3-ethyl-bicyclo [3.2.0] hept-3-ene-6-acetic acid), a Known Blocker of CaV Channels” (International Journal of Molecular Sciences, 2022).
# Tested on: T1, voltage-gated Na+ (NaV) channel
# T1 construct: native channels of pituitary GH3 cells, isoform not resolved
# Assay: whole-cell patch clamp of native late INa in GH3 cells
# Assay type: cell-based
smiles,measurement,value
"CCC1=C[C@@H]2[C@H](C1)C[C@]2(CN)CC(=O)O [MGB, (1R,5S,6S)-6-(aminomethyl)-3-ethyl-bicyclo [3.2.0] hept-3-ene-6-acetic acid]",IC50,7.3 µM
